# Patent publication US4642332A, “Effective hormonal peptides: D-3-Pal^6 -LHRH” (The Board of Regents, The University of Texas System, priority 1985, dated 1987)
# System: 21 day old female rats
# Assay: In vivo assay in rats for release of LH and FSH
# Set-up: species or system rat
# Details: for Serum FSH ng/ml SEM / Serum LH ng/ml SEM: Table IX, blood sample at ±60 minutes; for Serum FSH ng/ml SEM / Serum LH ng/ml SEM / FSH ng/ml Serum ± SEM at +120 min / LH ng/ml Serum ± SEM at +120 min: mean of 6; for FSH ng/ml Serum ± SEM at +120 min / LH ng/ml Serum ± SEM at +120 min: Table X
# Protocol: In vivo rat assay performed by a modification of the method of Bowers, C. Y. et al. Endocrinology, 106, 674 (1980). 21 day old female rats were injected sc with saline or peptide. Blood samples for the RIAs of LH and FSH were collected at +15, +60, +120, or +180 minutes. (Tables VI-XI).
# [1] = Table XI, 150 ng sc, +3 hrs, mean 5-6
Compound,"LH ng/ml Serum ± SEM ± 15 min (Table VII, dosage 100 mg/rat sc (so in the source), ± 15 min) [ng/mL]","LH ng/ml Serum ± SEM ± 60 min (Table VII, dosage 100 mg/rat sc (so in the source), ± 60 min) [ng/mL]","+2 hrs LH ± SEM ng/ml serum (Table XI, 150 ng sc, mean 5-6) [ng/mL]","FSH ± SEM ng/ml serum (+2 hrs) (Table XI, 150 ng sc, mean 5-6) [ng/mL]",+3 hrs LH ± SEM ng/ml serum [1] [ng/mL],Serum FSH ng/ml SEM (50 ng/rat sc) [ng/mL],Serum LH ng/ml SEM (50 ng/rat sc) [ng/mL],Serum FSH ng/ml SEM (150 ng/rat sc) [ng/mL],Serum LH ng/ml SEM (150 ng/rat sc) [ng/mL],FSH ng/ml Serum ± SEM at +120 min (50 ng/rat sc) [ng/mL],LH ng/ml Serum ± SEM at +120 min (50 ng/rat sc) [ng/mL],FSH ng/ml Serum ± SEM at +120 min (150 ng/rat sc) [ng/mL],LH ng/ml Serum ± SEM at +120 min (150 ng/rat sc) [ng/mL],FSH ± SEM ng/ml serum (+3 hrs) [1] [ng/mL]
"CCNC(=O)[C@@H]1CCCN1C(=O)[C@H](CCCNC(=N)N)NC(=O)[C@H](CC(C)C)NC(=O)[C@@H](Cc1c[nH]c2ccccc12)NC(=O)[C@H](Cc1ccc(O)cc1)NC(=O)[C@H](CO)NC(=O)[C@H](Cc1c[nH]c2ccccc12)NC(=O)[C@H](Cc1c[nH]cn1)NC(=O)[C@@H]1CCC(=O)N1 [D-Trp^6 Pro^9 Net--LHRH, pyroGlu--His--Trp--Ser--Tyr-- D-Trp--Leu--Arg--Pro--EA**]",59 ± 10,228 ± 41,184 ± 29,2260 ± 294,103 ± 9,–,–,–,–,–,–,–,–,–
"CNC(=O)[C@@H]1CCCN1C(=O)[C@H](CCCNC(=N)N)NC(=O)[C@H](CC(C)C)NC(=O)[C@@H](Cc1cccnc1)NC(=O)[C@H](Cc1ccc(O)cc1)NC(=O)[C@H](CO)NC(=O)[C@H](Cc1c[nH]c2ccccc12)NC(=O)[C@H](Cc1c[nH]cn1)NC(=O)[C@@H]1CCC(=O)N1 [Peptide 21437, pryoGlu-His-Trp-Ser-Tyr-D-3-Pal-Leu-Arg-Pro-NHCH3]",–,–,–,–,–,1707 ± 518,47 ± 8,2799 ± 783,111 ± 26,–,–,–,–,–
"CCNC(=O)[C@@H]1CCCN1C(=O)[C@H](CCCNC(=N)N)NC(=O)[C@H](CC(C)C)NC(=O)[C@@H](Cc1cccnc1)NC(=O)[C@H](Cc1ccc(O)cc1)NC(=O)[C@H](CO)NC(=O)[C@H](Cc1c[nH]c2ccccc12)NC(=O)[C@H](Cc1c[nH]cn1)NC(=O)[C@@H]1CCC(=O)N1 [Peptide 21436, pyroGlu-His-Trp-Ser-Tyr-D-3-Pal-Leu-Arg-Pro-NHC2 H5]",–,–,237 ± 52,2415 ± 361,106 ± 13,3471 ± 229,116 ± 20,1458 ± 424,144 ± 37,4692 ± 393,291 ± 11,4811 ± 782,278 ± 14,2205 ± 298
